US10227359B2, “Tricyclic heterocycles as bet protein inhibitors” (Incyte Corporation, priority 2014, dated 2019)

How the values were obtained:
[1] = system: KMS.12.BM cell line (human myeloma); assay: KMS.12.BM Cell Viability Assay; assay type: cell-based; conditions: 72 h, KMS.12.BM cells, 3 days, Cell Titer-GLO, read-out: KMS cellular IC50
Description: Example B1: KMS.12.BM Cell Viability Assay
KMS.12.BM cell line (human myeloma) was purchased from JCRB (Osaka, Japan) and maintained in RPMI with 10% FBS culture medium. To measure the cytotoxic activity of the compounds through ATP quantitation, the KMS.12.BM cells are plated in the RPMI culture medium at 5000 cells/well/per 100 μL into a 96-well polystyrene clear black tissue culture plate (Greiner-bio-one through VWR, NJ), in the presence or absence of a concentration range of test compounds. After 3 days, […] Cell Titer-GLO Luminescent (Promega, Madison, Wis.) cell culture agent is added to each well for 10 min. at room temperature to stabilize the luminescent signal. This determines the number of viable cells in culture based on quantitation of the ATP present, which signals the presence of metabolically active cells. Luminescence is measured with the Top Count 384 (Packard Bioscience through Perkin Elmer, Boston, Mass.). Compound inhibition is determined relative to cells cultured with no drug and the IC50 reported as the compound concentration required for 50% cell death.

C-myc in KMS.12.BM cells = assay: KMS.12.BM C-myc ELISA Assay; assay type: cell-based; conditions: Homo sapiens, 2 h
Description: KMS.12.BM C-myc ELISA Assay
KMS.12.BM cell line (human myeloma) was purchased from JCRB (Osaka, Japan) and maintained in RPMI with 10% FBS culture medium. To measure the C-myc inhibitory activity of the compounds, the KMS.12.BM cells are plated in the RPMI culture medium at 75000 cells/well/per 200 μL into a 96-well flat bottom polystyrene tissue culture plate (Corning through VWR, NJ), in the presence or absence of a concentration range of test compounds. After 2 h, cells are pelleted and lysed with Cell Extraction Buffer (BioSource, Carlsbad, Calif.) in the presence of protease inhibitors (Life Technologies, Grand Island, N.Y. and Sigma, St Louis, Mo.). Clarified lyses are tested in a C-myc commercial ELISA (Life Technologies, Grand Island, N.Y.). Compound inhibition is determined relative to cells cultured with no drug and the IC50 reported as the compound concentration required for 50% C-myc inhibition.

Row | IC50 [1] | IC50 (C-myc in KMS.12.BM cells) | Compound
1 | ≤ 100 nM | ≤ 100 nM | Cc1noc(C)c1-c1ccc2nc(N3CCN(C(=O)C(C)C)CC3)n3c2c1OC[C@@H]3c1ccccn1 [Example 1, (4S)-7-(3,5-Dimethylisoxazol-4-yl)-2-(4-isobutyrylpiperazin-1-yl)-4-pyridin-2-yl-4,5-dihydroimidazo[1,5,4-de][1,4]benzoxazine]
2 | ≤ 100 nM | ≤ 100 nM | Cc1noc(C)c1-c1ccc2nc(N3CCN(C(=O)C(C)(C)C)CC3)n3c2c1OC[C@@H]3c1ccccn1 [Example 26, (4S)-7-(3,5-dimethylisoxazol-4-yl)-2-[4-(2,2-dimethylpropanoyl)piperazin-1-yl]-4-pyridin-2-yl-4,5-dihydroimidazo[1,5,4-de][1,4]benzoxazine]
3 | ≤ 100 nM | ≤ 100 nM | CC(=O)N1CCN(c2nc3ccc(-c4c(C)noc4C)c4c3n2[C@@H](c2ccccn2)CO4)[C@@H](C)C1 [Example 3, (4S)-2-[(2S)-4-acetyl-2-methylpiperazin-1-yl]-7-(3,5-dimethylisoxazol-4-yl)-4-pyridin-2-yl-4,5-dihydroimidazo[1,5,4-de][1,4]benzoxazine]
4 | ≤ 100 nM | ≤ 100 nM | CC(=O)N1C[C@@H](C)N(c2nc3ccc(-c4c(C)noc4C)c4c3n2[C@@H](c2ccccn2)CO4)[C@@H](C)C1 (atropisomer, axis not shown) [Example 2, (4S)-2-[(2R,6S)-4-Acetyl-2,6-dimethylpiperazin-1-yl]-7-(3,5-dimethylisoxazol-4-yl)-4-pyridin-2-yl-4,5-dihydroimidazo[1,5,4-de][1,4]benzoxazine]
5 | ≤ 100 nM | ≤ 100 nM | Cc1noc(C)c1-c1ccc2nc(N3CCC(N(C)S(C)(=O)=O)CC3)n3c2c1OC[C@@H]3c1ccccn1 [Example 22, N-{1-[(4S)-7-(3,5-dimethylisoxazol-4-yl)-4-pyridin-2-yl-4,5-dihydroimidazo[1,5,4-de][1,4]benzoxazin-2-yl]piperidin-4-yl}-N-methylmethanesulfonamide]
6 | ≤ 100 nM | ≤ 100 nM | Cc1noc(C)c1-c1ccc2nc(N3CCC(N(C)C(=O)C(C)C)CC3)n3c2c1OC[C@@H]3c1ccccn1 [Example 17, N-{1-[(4S)-7-(3,5-dimethylisoxazol-4-yl)-4-pyridin-2-yl-4,5-dihydroimidazo[1,5,4-de][1,4]benzoxazin-2-yl]piperidin-4-yl}-N,2-dimethylpropanamide]
7 | ≤ 100 nM | ≤ 100 nM | Cc1noc(C)c1-c1ccc2nc(N3CCC(N(C)S(=O)(=O)C4CC4)CC3)n3c2c1OC[C@@H]3c1ccccn1 [Example 24, N-{1-[(4S)-7-(3,5-dimethylisoxazol-4-yl)-4-pyridin-2-yl-4,5-dihydroimidazo[1,5,4-de][1,4]benzoxazin-2-yl]piperidin-4-yl}-N-methylcyclopropanesulfonamide]
8 | ≤ 100 nM | ≤ 100 nM | Cc1noc(C)c1-c1ccc2nc(N3CCN(C(=O)C4CC4)CC3)n3c2c1OC[C@@H]3c1ccccn1 [Example 27, (4S)-2-[4-(cyclopropylcarbonyl)piperazin-1-yl]-7-(3,5-dimcthylisoxazol-4-yl)-4-pyridin-2-yl-4,5-dihydroimidazo[1,5,4-de][1,4]benzoxazine]
9 | ≤ 100 nM | 100 to 1000 nM | CCS(=O)(=O)N(C)C1CCN(c2nc3ccc(-c4c(C)noc4C)c4c3n2[C@@H](c2ccccn2)CO4)CC1 [Example 23, N-{1-[(4S)-7-(3,5-dimethylisoxazol-4-yl)-4-pyridin-2-yl-4,5-dihydroimidazo[1,5,4-de][1,4]benzoxazin-2-yl]piperidin-4-yl}-N-methylethanesulfonamide]
10 | ≤ 100 nM | ≤ 100 nM | Cc1noc(C)c1-c1ccc2nc(N3CCC(NC(=O)C4CC4)CC3)n3c2c1OC[C@@H]3c1ccccn1 [Example 12]
11 | ≤ 100 nM | ≤ 100 nM | CC(=O)N1CC2CC1CN2c1nc2ccc(-c3c(C)noc3C)c3c2n1[C@@H](c1ccccn1)CO3 (stereo partly drawn) [Example 4, (4S)-2-(5-acetyl-2,5-diazabicyclo[2.2.1]hept-2-yl)-7-(3,5-dimethylisoxazol-4-yl)-4-pyridin-2-yl-4,5-dihydroimidazo[1,5,4-de][1,4]benzoxazine]
